# In paper PMC7794376 (Nature Communications, 2021):
# Values joined by “and” are separate entries in the source; they are usually repeats but may differ in a detail not shown here. Identical values can stand only once. Like-named read-outs stand apart in the source and are kept apart here.
# Key:
# MtbCoaBC = MtbCoaBC (Mycobacterium tuberculosis, UniProt P9WNZ1); assay: biochemical; assay type: biochemical; conditions: for activity at 0.03125 µM / activity at 0.0625 µM / activity at 0.25 µM / activity at 0.5 µM / activity at 1 µM / activity at 2 µM: relative to average DMSO CT; for Activity R1 / Activity R3: slope of absorbance at 360nm vs time (s)
# M. tuberculosis H37Rv = assay: MIC determination in different media; assay type: cell-based; conditions: Mycobacterium tuberculosis, read-out: Minimum inhibitory concentration (MIC)
# MtbCoaBC, sequence (P9WNZ1 whole entry): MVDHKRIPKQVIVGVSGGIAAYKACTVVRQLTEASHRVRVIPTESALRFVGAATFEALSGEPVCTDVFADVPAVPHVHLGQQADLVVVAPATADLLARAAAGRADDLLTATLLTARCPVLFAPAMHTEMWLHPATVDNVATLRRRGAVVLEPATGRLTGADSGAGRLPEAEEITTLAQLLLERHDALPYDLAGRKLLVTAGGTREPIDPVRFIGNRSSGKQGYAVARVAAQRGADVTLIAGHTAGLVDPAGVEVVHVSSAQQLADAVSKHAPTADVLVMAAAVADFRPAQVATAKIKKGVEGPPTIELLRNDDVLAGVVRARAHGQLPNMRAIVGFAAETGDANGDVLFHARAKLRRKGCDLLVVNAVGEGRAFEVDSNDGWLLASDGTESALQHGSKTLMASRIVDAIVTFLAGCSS
structure (smiles),measurement,setting,value
Cc1ccc(-c2oc3cc(O)cc(O)c3c(=O)c2O)cc1C [compound 2d],inhibition at 0.03125 µM,"MtbCoaBC; 2d at 0.03125 uM, replicate R1, read-out: Inhibition % R1",0.7%
same,activity at 0.03125 µM,"MtbCoaBC; 2d at 0.03125 uM, replicate R1, read-out: Activity % R1",99.3%
same,Activity R1,"MtbCoaBC; 2d at 0.03125 uM, replicate R1",0.0001845
same,inhibition at 0.03125 µM,"MtbCoaBC; 2d at 0.03125 uM, replicate R2, read-out: Inhibition % R2",0.97%
same,activity at 0.03125 µM,"MtbCoaBC; 2d at 0.03125 uM, replicate R2, read-out: Activity % R2",99%
same,inhibition at 0.03125 µM,"MtbCoaBC; 2d at 0.03125 uM, replicate R3, read-out: Inhibition % R3",0.58%
same,activity at 0.03125 µM,"MtbCoaBC; 2d at 0.03125 uM, replicate R3, read-out: Activity % R3",99.4%
same,Activity R3,"MtbCoaBC; 2d at 0.03125 uM, replicate R3",0.0001847
same,inhibition at 0.0625 µM,"MtbCoaBC; 2d at 0.0625 uM, replicate R1, read-out: Inhibition % R1",8.46%
same,activity at 0.0625 µM,"MtbCoaBC; 2d at 0.0625 uM, replicate R1, read-out: Activity % R1",91.5%
same,Activity R1,"MtbCoaBC; 2d at 0.0625 uM, replicate R1",0.0001701
same,inhibition at 0.0625 µM,"MtbCoaBC; 2d at 0.0625 uM, replicate R2, read-out: Inhibition % R2",5.42%
same,activity at 0.0625 µM,"MtbCoaBC; 2d at 0.0625 uM, replicate R2, read-out: Activity % R2",94.6%
same,inhibition at 0.0625 µM,"MtbCoaBC; 2d at 0.0625 uM, replicate R3, read-out: Inhibition % R3",3.86%
same,activity at 0.0625 µM,"MtbCoaBC; 2d at 0.0625 uM, replicate R3, read-out: Activity % R3",96.1%
same,Activity R3,"MtbCoaBC; 2d at 0.0625 uM, replicate R3",0.0001786
same,inhibition at 0.25 µM,"MtbCoaBC; 2d at 0.25 uM, replicate R1, read-out: Inhibition % R1",14.5%
same,activity at 0.25 µM,"MtbCoaBC; 2d at 0.25 uM, replicate R1, read-out: Activity % R1",85.5%
same,Activity R1,"MtbCoaBC; 2d at 0.25 uM, replicate R1",0.0001588
same,inhibition at 0.25 µM,"MtbCoaBC; 2d at 0.25 uM, replicate R2, read-out: Inhibition % R2",31.1%
same,activity at 0.25 µM,"MtbCoaBC; 2d at 0.25 uM, replicate R2, read-out: Activity % R2",68.9%
same,inhibition at 0.25 µM,"MtbCoaBC; 2d at 0.25 uM, replicate R3, read-out: Inhibition % R3",29.5%
same,activity at 0.25 µM,"MtbCoaBC; 2d at 0.25 uM, replicate R3, read-out: Activity % R3",70.5%
same,Activity R3,"MtbCoaBC; 2d at 0.25 uM, replicate R3",0.000131
same,inhibition at 0.5 µM,"MtbCoaBC; 2d at 0.5 uM, replicate R1, read-out: Inhibition % R1",41%
same,activity at 0.5 µM,"MtbCoaBC; 2d at 0.5 uM, replicate R1, read-out: Activity % R1",59%
same,Activity R1,"MtbCoaBC; 2d at 0.5 uM, replicate R1",0.0001096
same,inhibition at 0.5 µM,"MtbCoaBC; 2d at 0.5 uM, replicate R2, read-out: Inhibition % R2",49.6%
same,activity at 0.5 µM,"MtbCoaBC; 2d at 0.5 uM, replicate R2, read-out: Activity % R2",50.4%
same,inhibition at 0.5 µM,"MtbCoaBC; 2d at 0.5 uM, replicate R3, read-out: Inhibition % R3",54%
same,activity at 0.5 µM,"MtbCoaBC; 2d at 0.5 uM, replicate R3, read-out: Activity % R3",46%
same,Activity R3,"MtbCoaBC; 2d at 0.5 uM, replicate R3",8.549e-5 and 0.000085493
same,inhibition at 1 µM,"MtbCoaBC; 2d at 1 uM, replicate R1, read-out: Inhibition % R1",63%
same,activity at 1 µM,"MtbCoaBC; 2d at 1 uM, replicate R1, read-out: Activity % R1",37%
same,Activity R1,"MtbCoaBC; 2d at 1 uM, replicate R1",6.875e-5 and 0.000068751
same,inhibition at 1 µM,"MtbCoaBC; 2d at 1 uM, replicate R2, read-out: Inhibition % R2",75%
same,activity at 1 µM,"MtbCoaBC; 2d at 1 uM, replicate R2, read-out: Activity % R2",25%
same,inhibition at 1 µM,"MtbCoaBC; 2d at 1 uM, replicate R3, read-out: Inhibition % R3",72.4%
same,activity at 1 µM,"MtbCoaBC; 2d at 1 uM, replicate R3, read-out: Activity % R3",27.6%
same,Activity R3,"MtbCoaBC; 2d at 1 uM, replicate R3",5.136e-5 and 0.000051357
same,inhibition at 2 µM,"MtbCoaBC; 2d at 2 uM, replicate R1, read-out: Inhibition % R1",79%
same,activity at 2 µM,"MtbCoaBC; 2d at 2 uM, replicate R1, read-out: Activity % R1",21%
same,Activity R1,"MtbCoaBC; 2d at 2 uM, replicate R1",3.9e-5 and 0.000039000
same,inhibition at 2 µM,"MtbCoaBC; 2d at 2 uM, replicate R2, read-out: Inhibition % R2",91%
same,activity at 2 µM,"MtbCoaBC; 2d at 2 uM, replicate R2, read-out: Activity % R2",8.99%
same,inhibition at 2 µM,"MtbCoaBC; 2d at 2 uM, replicate R3, read-out: Inhibition % R3",85%
same,activity at 2 µM,"MtbCoaBC; 2d at 2 uM, replicate R3, read-out: Activity % R3",15%
same,Activity R3,"MtbCoaBC; 2d at 2 uM, replicate R3",2.786e-5 and 0.000027864
same,Activity R1,"MtbCoaBC; 2d at […], replicate R1",0.0001624
same,Activity R3,"MtbCoaBC; 2d at […], replicate R3",0.0001724
same,IC50,"MtbCoaBC; CoaB activity, […] CTP, […] PPA, 500 µM L-cysteine, average of three independent experiments ± SD, read-out: IC50 EnzChek MtbCoaBC",540 ± 60 nM
same,MIC,M. tuberculosis H37Rv; 7H9/ADC/Glycerol,> 250 µM
same,MIC,M. tuberculosis H37Rv; 7H9/Cholesterol/Tyloxapol,> 250 µM
same,MIC,M. tuberculosis H37Rv; GAST/Fe,> 250 µM
